# Experimental data as given in article PMC7077986, “Molecular basis for catabolism of the abundant metabolite trans-4-hydroxy-L-proline by a microbial glycyl radical enzyme” (eLife, 2020).
# T1: HypD (trans-4-hydroxy-L-proline dehydratase; CdHypD) (Clostridioides difficile, UniProt A0A031WDE4)
# T1 construct: gene pflD; full length, N-terminal hexahistidine tag (pET28a-CdHypD), E. coli BL21-CodonPlus(DE3)-RIL (delta proC for assays); dimeric; for activity the Gly765 radical was installed by HypD-AE
# T1 sequence (A0A031WDE4 1-789): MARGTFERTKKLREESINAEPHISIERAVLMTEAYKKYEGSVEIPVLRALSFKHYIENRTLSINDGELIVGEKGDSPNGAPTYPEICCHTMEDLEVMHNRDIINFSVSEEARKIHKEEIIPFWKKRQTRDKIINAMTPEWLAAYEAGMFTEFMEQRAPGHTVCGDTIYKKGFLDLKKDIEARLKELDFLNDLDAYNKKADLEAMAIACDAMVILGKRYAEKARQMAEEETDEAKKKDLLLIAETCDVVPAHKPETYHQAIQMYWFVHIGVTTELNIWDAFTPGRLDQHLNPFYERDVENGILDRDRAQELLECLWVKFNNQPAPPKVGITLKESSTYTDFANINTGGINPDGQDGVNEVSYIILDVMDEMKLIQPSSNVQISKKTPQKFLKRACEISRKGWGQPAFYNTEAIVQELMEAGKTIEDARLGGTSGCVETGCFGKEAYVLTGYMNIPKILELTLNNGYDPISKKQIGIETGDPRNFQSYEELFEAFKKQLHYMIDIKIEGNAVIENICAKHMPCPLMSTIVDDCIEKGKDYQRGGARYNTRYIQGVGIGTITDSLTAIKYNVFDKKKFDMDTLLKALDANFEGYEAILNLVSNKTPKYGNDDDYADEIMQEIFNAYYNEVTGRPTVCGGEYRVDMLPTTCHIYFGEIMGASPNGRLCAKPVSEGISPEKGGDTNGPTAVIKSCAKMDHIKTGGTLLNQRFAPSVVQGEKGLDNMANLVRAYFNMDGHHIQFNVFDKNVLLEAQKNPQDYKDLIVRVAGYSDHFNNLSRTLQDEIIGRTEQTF
# B1: trans-4-hydroxy-L-proline dehydratase (HypD) from Clostridioides difficile 70-100-2010, wild type, unactivated (enzyme)
# chain: MARGTFERTKKLREESINAEPHISIERAVLMTEAYKKYEGSVEIPVLRALSFKHYIENRTLSINDGELIVGEKGDSPNGAPTYPEICCHTMEDLEVMHNRDIINFSVSEEARKIHKEEIIPFWKKRQTRDKIINAMTPEWLAAYEAGMFTEFMEQRAPGHTVCGDTIYKKGFLDLKKDIEARLKELDFLNDLDAYNKKADLEAMAIACDAMVILGKRYAEKARQMAEEETDEAKKKDLLLIAETCDVVPAHKPETYHQAIQMYWFVHIGVTTELNIWDAFTPGRLDQHLNPFYERDVENGILDRDRAQELLECLWVKFNNQPAPPKVGITLKESSTYTDFANINTGGINPDGQDGVNEVSYIILDVMDEMKLIQPSSNVQISKKTPQKFLKRACEISRKGWGQPAFYNTEAIVQELMEAGKTIEDARLGGTSGCVETGCFGKEAYVLTGYMNIPKILELTLNNGYDPISKKQIGIETGDPRNFQSYEELFEAFKKQLHYMIDIKIEGNAVIENICAKHMPCPLMSTIVDDCIEKGKDYQRGGARYNTRYIQGVGIGTITDSLTAIKYNVFDKKKFDMDTLLKALDANFEGYEAILNLVSNKTPKYGNDDDYADEIMQEIFNAYYNEVTGRPTVCGGEYRVDMLPTTCHIYFGEIMGASPNGRLCAKPVSEGISPEKGGDTNGPTAVIKSCAKMDHIKTGGTLLNQRFAPSVVQGEKGLDNMANLVRAYFNMDGHHIQFNVFDKNVLLEAQKNPQDYKDLIVRVAGYSDHFNNLSRTLQDEIIGRTEQTF
# notes: HypD (trans-4-hydroxy-L-proline dehydratase), glycyl radical enzyme, gene amplified from C. difficile 70-100-2010 genomic DNA; UniProt A0A031WDE4; all residues other than the hexahistidine tag are seen in the structures; Crystallised with the N-terminal hexahistidine tag intact; also called Hyp dehydratase; CdHypD; source: E. coli BL21-CodonPlus(DE3)-RIL, pET28a-CdHypD, purified (Ni-NTA); not …
# How the values were obtained:
# [1] = target: T1, HypD (trans-4-hydroxy-L-proline dehydratase; CdHypD); experiment: X-ray crystal structure, […] Å; assay type: binding; settings: unactivated enzyme; active site; 4 mM Hyp in crystallization buffer, 100 mM Hyp in cryoprotectant, pH 7.5, 21 °C
# [2] = target: the molecule itself; experiment: crystal structure; unactivated wild-type HypD with intact N-terminal hexahistidine tag, crystallised aerobically, hanging drop, 21°C, 14% PEG 3350, 100 mM KCl, 100 mM HEPES pH 7.5; glycerol-bound (2.05 Å) and Hyp-bound (2.52 Å) crystals; eight chains in the asymmetric unit
Molecule,"X-ray crystal structure, 2.52 Å [1]",stoichiometry N [2]
O=C(O)[C@@H]1C[C@@H](O)CN1 [Hyp],"In the active site of the Hyp-bound HypD structure, electron density was observed for the substrate",–
B1,–,2
